Paper PMC9037752, “A Novel Angiotensin I-Converting Enzyme Inhibitory Peptide Derived From Goat Milk Casein Hydrolysate Modulates Angiotensin II-Stimulated Effects on Vascular Smooth Muscle Cells” (Frontiers in Nutrition, 2022)
Ends that are not written are not given here.

Legend:
ACE = settings: peptides <3 kDa from fermented goat milk; cited from earlier work
Description: Among them, VLPVPQKAV ...

A7r5 cells [1] = settings: co-treatment 10, 50, 100 μg mL^−1 with Ang II 0.1 μM, 24 h, CCK-8
Description: The rat aortic vascular smooth muscle cell line A7r5, was purchased from Cell bank of Chinese Academy of Sciences (Shanghai, China). A7r5 cells between passage 8 and 20 were grown in DMEM supplemented with 10% FBS and antibiotics until they reached confluence. For experiments, the confluent cells were placed in a quiescing medium (DMEM + 1% FBS + antibiotics) ([24]) for 24 h, before treatment with different concentrations of [sequence] and Ang II for different time periods.
Cell proliferation was measured by the Cell Counting Kit-8. A7r5 cells were seeded at 5 × 10^3 cells per well into 96-well plates and grown in DMEM with 10% of FBS for 24 h, then the medium was replaced by quiescing medium overnight. The cells were co-treated with different concentrations of [sequence] (0, 10, 50, 100 μg mL^−1) and Ang II (0.1 μM) for 24 h. The absorbance of samples at a wavelength of 450 nm was measured using a microplate reader. The cell survival rate (%) was determined by the percentage of living cells in the test wells compared to the control wells.

[2] = target: T1, Angiotensin Converting Enzyme from rabbit lung (Oryctolagus cuniculus, UniProt P12822); assay: ACE inhibitory activity after in vitro gastrointestinal digest; assay type: biochemical
T1 construct: Angiotensin Converting Enzyme from rabbit lung; purchased Sigma-Aldrich; host or cells: rabbit lung tissue
T1 sequence (P12822 34-1310): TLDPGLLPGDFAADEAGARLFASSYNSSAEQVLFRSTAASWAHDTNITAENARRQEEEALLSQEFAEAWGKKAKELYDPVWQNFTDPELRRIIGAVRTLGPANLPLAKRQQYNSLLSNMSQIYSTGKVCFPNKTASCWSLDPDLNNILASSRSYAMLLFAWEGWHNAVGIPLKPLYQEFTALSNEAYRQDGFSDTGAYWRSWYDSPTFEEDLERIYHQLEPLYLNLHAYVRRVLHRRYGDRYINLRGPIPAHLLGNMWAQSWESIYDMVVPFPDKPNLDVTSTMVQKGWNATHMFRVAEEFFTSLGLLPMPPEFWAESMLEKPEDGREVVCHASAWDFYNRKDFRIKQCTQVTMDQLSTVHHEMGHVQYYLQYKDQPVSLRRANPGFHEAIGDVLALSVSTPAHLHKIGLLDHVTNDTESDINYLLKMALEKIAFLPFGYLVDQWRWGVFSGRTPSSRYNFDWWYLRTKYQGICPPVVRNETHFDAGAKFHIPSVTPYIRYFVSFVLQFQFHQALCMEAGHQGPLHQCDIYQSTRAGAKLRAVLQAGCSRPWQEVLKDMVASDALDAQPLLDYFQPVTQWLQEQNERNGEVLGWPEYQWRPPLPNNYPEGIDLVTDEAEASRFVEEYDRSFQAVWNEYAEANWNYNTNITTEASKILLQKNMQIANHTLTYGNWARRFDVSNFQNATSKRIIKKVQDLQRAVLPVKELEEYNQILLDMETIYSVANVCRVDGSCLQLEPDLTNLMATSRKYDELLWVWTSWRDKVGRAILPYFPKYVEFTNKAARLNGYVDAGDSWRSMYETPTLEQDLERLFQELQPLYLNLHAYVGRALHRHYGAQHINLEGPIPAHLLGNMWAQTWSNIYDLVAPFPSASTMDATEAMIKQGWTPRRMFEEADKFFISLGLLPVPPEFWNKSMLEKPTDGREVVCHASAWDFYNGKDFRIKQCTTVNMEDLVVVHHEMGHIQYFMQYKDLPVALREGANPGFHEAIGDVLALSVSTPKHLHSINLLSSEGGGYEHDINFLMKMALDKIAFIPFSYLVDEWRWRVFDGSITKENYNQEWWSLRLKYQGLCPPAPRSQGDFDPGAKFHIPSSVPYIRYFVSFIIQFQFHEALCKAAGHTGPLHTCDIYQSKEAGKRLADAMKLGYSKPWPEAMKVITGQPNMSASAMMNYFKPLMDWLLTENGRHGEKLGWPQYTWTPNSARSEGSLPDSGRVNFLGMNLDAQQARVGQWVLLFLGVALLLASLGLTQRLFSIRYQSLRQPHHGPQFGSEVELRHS
Description: (§1) ACE inhibitory activity was measured using an RP-HPLC method with Hippuryl-His-Leu (HHL) as a substrate, which generated hippuric acid (HA) under enzymatic hydrolysis ([19]). The sample was dissolved in a borax-boric acid buffer containing 0.15 M NaCl (pH = 8.3). Firstly, add 10 μL ACE (0.2 U) to the sample tube and blank tube, respectively. At the same time, add 10 μL of sample to the sample tube, and add 10 μL of buffer and 80 μL of 1 M HCl to the blank tube, then pre-incubate at 37°C for 5 min. The reaction was initiated by adding 30 μL HHL (6.5 mM) and incubated for 60 min at the same temperature until 80 μL 1 M HCl was added to terminate the reaction.
In vitro digestion of the potent purified ACE inhibitory peptide was carried out according to the reported method, with some adjustments ([22], [23]). Peptide (0.4 mL, 1.5 mg mL^−1) was incubated with 2% (w/w) α-amylase, pepsin, or trypsin at 37°C.
In successive digestion tests, the peptide was first dissolved in buffer solution (pH 6.8) to 2 mg mL^−1 and incubated with α-amylase for 5 min. Then the pH was decreased to pH 2 with the addition of 1 M HCl. Subsequently, the gastric digestion was initiated by adding pepsin at an enzyme-substrate ratio of 2:100 (w/w). The reaction was stopped after 2 h by raising the pH to 8.0 with 1 M NaOH, and trypsin was added to the reactor to continue gastrointestinal digestion for 4 h. Last, the reaction mixture was heated for 15 min in boiling water to inactivate the enzyme.

[3] = target: T1, Angiotensin Converting Enzyme from rabbit lung; assay: Inhibitory kinetics study (Lineweaver-Burk plot); assay type: biochemical; settings: different HHL and peptide concentrations
Description: Briefly, the enzyme activities were measured with different concentrations of the substrate (HHL) and the ACE inhibitory pattern in the presence of the inhibitor was determined with a Lineweaver–Burk plot.

A7r5 cells [4] = assay: Real time quantitative RT-PCR of differentially expressed genes; assay type: cell-based, rat; settings: FPQYLQYPY-treated group vs Ang II-treated group
Description: Total RNA was extracted from A7r5 cells using TRIzol reagent, according to the manufacturer's specifications. The information of primer sequences is shown in Supplementary Table 1. RT reactions were performed in a GeneAmp® PCR System 9700 (Applied Biosystems, USA). Then, Real-time PCR was performed using the LightCycler® 480 II Real-time PCR Instrument (Roche, Swiss). The relative expression level was calculated using the 2^−ΔΔCt.

A7r5 cells [5] = assay: Wound healing assay of Ang II-stimulated VSMCs; assay type: cell-based, rat; settings: 100 μg mL^−1, Ang II 1 μM, 24 h, ImageJ
Description: Migration of A7r5 cells was evaluated using the wound healing assay ([25]). Three lines were drawn horizontally on the back of each hole on the 6-well plate with a marker. Cells in logarithmic growth phase were evenly seeded into 6-well plates with 2 × 10^5 cells per well, and grown in complete medium until the cells covered the bottom of the plate, then the medium was replaced by quiescing medium for overnight.
Afterwards, a sterile 200 μL spear head was used to quickly delimit at an average equal distance in the vertical direction according to the marking line, and washed with PBS to remove the floating cells. […] The migration distance was analyzed by ImageJ software.

[6] = target: T1, Angiotensin Converting Enzyme from rabbit lung; assay: ACE-inhibitory activity assay (RP-HPLC, HHL substrate); assay type: biochemical; settings: HHL 6.5 mM, ACE 0.2 U, 37°C, 60 min, pH 8.3; HA at 228 nm by RP-HPLC; mean ± SD; sample concentration not given
Description: as §1
ACE inhibitory activity (%) was confirmed by monitoring the formation of HA at 228 nm as detected by RP-HPLC on a C18 column (250 × 4.6 mm, 5 μm, Ecosil). The mobile phase was 25% acetonitrile and 75% water with 0.01% trifluoroacetic acid with a flow rate of 1 mL/min. The inhibition activity was calculated using the following equation:
Inhibition activity(%)=A-B-A0/A-A0×100%
Where, A = the HA peak area of the control; B = the HA peak area of the sample; A0 = the HA peak area of control with HCL before pre-incubated.
The inhibitory activity of the hydrolysates or collected fractions was expressed as percentage of ACE inhibition at a given protein concentration ([20]).

A7r5 cells [7] = assay: Cell cytotoxicity test (CCK-8); assay type: cell-based, rat; settings: 1–200 μg mL^−1, 24 h, CCK-8, P > 0.05
Description: The cytotoxic effects of FPQYLQYPY in cell culture were evaluated using the Cell Counting Kit-8. First, A7r5 cells were seeded at 1 × 10^4 cells per well into 96-well plates (Costar, Corning, NY, USA) and cultured in a 5% CO2 incubator at 37°C for 24 h. Then, the medium of each well was replaced by 100 μL of fresh medium with different concentrations of FPQYLQYPY (0, 1, 5, 10, 50, 100, or 200 μg mL^−1). After further incubation for 24 h, 10 μL CCK-8 solution was added to each well. Then, the plate was incubated for another 2 h.

A7r5 cells [8] = assay: Transwell cell migration assay of Ang II-stimulated VSMCs; assay type: cell-based, rat; settings: 48 h, Ang II in lower chamber, crystal violet, absorbance 570 nm
Description: A7r5 cells were collected and suspended in DMEM (1% FBS), and then the density was adjusted to 2 × 10^5 cells ml^−1. In each group, cell suspensions with or without FPQYLQYPY were cultured in the upper chamber of a Transwell (8.0 μm, Corning, NY, USA) ([26]), and at the same time, the lower chamber was filled with or without Ang II for 48 h. […] After rinsing with PBS, a cotton swab was used to remove the upper unmigrated cells. The migratory cells were observed and photographed under an inverted microscope. Last, a 33% acetic acid solution was added to quantify the crystal violet, and the absorbance of samples was measured at a wavelength of 570 nm using a microplate reader.

[9] = target: T2, Angiotensin Converting Enzyme from rabbit lung (rabbit) (UniProt P12822)
T2 sequence: T1 sequence (P12822 34-1310)

[10] = target: T2, Angiotensin Converting Enzyme from rabbit lung (rabbit); remark: listed apart in the source
[11] = before digestion (inactivated enzyme), mean ± SD

VLPVPQKAVPQ
ACE-inhibitory activity (ACE): good ACE-inhibitory activity

FPQYLQYPY [FPQYLQYPY, also synthesized]
Proliferation of Ang II-stimulated VSMCs (A7r5 cells [1]): significantly decreased the percentage of proliferating cells | ACE inhibitory (%), oral digestion (α-Amylase), Digested ([2]; 2% (w/w) α-amylase, pH 6.8, 5 min, 37°C, mean ± SD): 57.95 ± 0.22% | ACE inhibitory (%), gastric digestion (Pepsin), Original [2, 11]: 54.12 ± 1.56% | ACE inhibitory (%), intestinal digestion (Trypsin), Original [2, 11]: 49.86 ± 1.68% | ACE inhibitory (%), oral digestion (α-Amylase), Original [2, 11]: 53.47 ± 7.32% | ACE inhibitory (%), gastric digestion (Pepsin), Digested ([2]; pepsin 2:100 (w/w), pH 2, 2 h, 37°C, mean ± SD): 56.41 ± 1.91% | ACE inhibitory (%), intestinal digestion (Trypsin), Digested ([2]; trypsin 2% (w/w), pH 8.0, 4 h, 37°C, mean ± SD): 45.76 ± 0.42% | Change of ACE inhibitory activity after incubation with the digestive enzymes ([2]; α-amylase, pepsin, trypsin, 37°C, read-out ACE inhibition): no significant difference | Inhibition pattern against ACE [3]: non-competitive | Cox5b mRNA expression (A7r5 cells [4]): downregulated | Efna4 mRNA expression (A7r5 cells [4]): downregulated | Igf1r mRNA expression (A7r5 cells [4]): downregulated | Itga3 mRNA expression (A7r5 cells [4]): downregulated | Myl4 mRNA expression (A7r5 cells [4]): upregulated | Plcb3 mRNA expression (A7r5 cells [4]): downregulated | Shc4 mRNA expression (A7r5 cells [4]): upregulated | Taok3 mRNA expression (A7r5 cells [4]): downregulated | Tgfb1 mRNA expression (A7r5 cells [4]): upregulated | Distance of the wound healing area (migration) (A7r5 cells [5]): restore the distance of the wound healing area to the level of the control group | ACE inhibition rate [6]: 71.19 ± 0.71% | Cytotoxic effect on A7r5 cells (A7r5 cells [7]): no obvious cytotoxic effect | Cell migration in Transwell experiment (A7r5 cells [8]): the decrease in the level of cell migration was noteworthy

VLPVPQKVVPQ
ACE-inhibitory activity (ACE): good ACE-inhibitory activity

FPQYLQYPY [ACE-inhibitory peptide Phe-Pro-Gln-Tyr-Leu-Gln-Tyr-Pro-Tyr (…)]
ACE-inhibitory ability (%) of the purified fraction F3 (HHL substrate, hippuric acid by RP-HPLC; concentration not given) [9]: 71.2% | ACE inhibitory (%), undigested peptide ('Original') of the gastric digestion step (pepsin) [10]: 54.1% | ACE inhibitory (%), undigested peptide ('Original') of the intestinal digestion step (trypsin) [10]: 49.9% | ACE inhibitory (%), undigested peptide ('Original') of the oral digestion step (α-amylase) [10]: 53.5%
